Where “and” joins values, the source holds several entries; their conditions need not be identical. Equal entries are not always repeated.
Target: T1, M2RFL△9M_K383M (Homo sapiens, UniProt P08172, K383M/M139L/M142L/M143L/M1T/M248L/M296L/M368L/M456T/M45L)
T1 construct: we used the full-length M2R (M2RFL) with mutations at the three native methionines in ICL3; FLAG; His; made in house; host or cells: Sf9 membranes
T1 sequence (P08172 1-466 M1T/M45L/M139L/M142L/M143L/M248L/M296L/M368L/K383M/M456T): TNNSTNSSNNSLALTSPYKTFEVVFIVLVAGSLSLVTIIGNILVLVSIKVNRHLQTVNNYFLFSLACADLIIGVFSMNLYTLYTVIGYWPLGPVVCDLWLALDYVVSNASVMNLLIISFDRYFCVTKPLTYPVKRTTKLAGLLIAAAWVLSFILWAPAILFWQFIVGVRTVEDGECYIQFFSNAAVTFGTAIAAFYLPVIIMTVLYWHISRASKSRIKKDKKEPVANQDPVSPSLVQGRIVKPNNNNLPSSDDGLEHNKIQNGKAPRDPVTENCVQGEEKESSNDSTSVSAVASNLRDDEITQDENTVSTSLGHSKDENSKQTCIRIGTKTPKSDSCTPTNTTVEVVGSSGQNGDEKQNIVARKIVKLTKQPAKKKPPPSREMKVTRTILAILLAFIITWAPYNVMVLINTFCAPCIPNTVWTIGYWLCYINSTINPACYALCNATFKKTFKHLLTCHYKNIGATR
Experiment: [3H]-NMS competition binding (ACh competition, GoA titration), engineered construct
Set-up: unit not given here
Protocol: Purified M2R receptor was reconstituted into high-density lipoprotein (HDL) particles constituting apolipoprotein A1(APOA1) and mixture of POPG: POPC lipids with 3:2 (mol:mol)ratio as previously described. […] Membranes or HDL particles were separated from excess [^3H]-NMS by Whatman GF/B filters using a Brandel 48-well harvester. The bound radioligand were read on a liquid scintillation counter (MicroBeta Jet, PerkinElmer). Data were analyzed by GraphPad Prism 9.2.0. […]
Data are given as mean
± SEM from 3 independent experiments.
M2RFL△9M_K383M and M2RFL_WT.
SEM from 3 independent experiments. […]

**Q.** What does the source list for `CC(=O)OCC[N+](C)(C)C` [ACh, acetylcholine]?
**A.** ACh competition curve data, Supplementary Fig. 4c (log[M] (ACh) -3): 3.636 and 3.347 and 4.163; ACh competition curve data, Supplementary Fig. 4c (log[M] (ACh) -4): 19.7375 and 21.0617 and 22.4385; ACh competition curve data, Supplementary Fig. 4c (log[M] (ACh) -5): 66.4796 and 63.8048 and 73.8724; ACh competition curve data, Supplementary Fig. 4c (log[M] (ACh) -6): 76.3279 and 99.6814 and 101.207; ACh competition curve data, Supplementary Fig. 4c (log[M] (ACh) -7): 102.154 and 99.3043 and 98.5413; ACh competition curve data, Supplementary Fig. 4c (log[M] (ACh) -8): 82.4578 and 100.655 and 103.084

Source: paper PMC9870890 (Nature Communications, 2023)
